Legend:
[1] = Compound concentration in gall bladder, LC-MS/MS, 8 h post dose; format: in vivo; conditions: 30 mg/kg; for Number of Mice with Gallbladder Concentration < LLOQ: mice below LLOQ / mice in group; for concentration at 8 h: male, C57BL/6, mouse, with contents, mice, gallbladder homogenate, read-out: Mean Example Gallbladder Concentration
Experimental: (§1) Eight hours later, each mouse was heavily anesthetized with isoflurane, the peritoneal cavity was opened and the gallbladder, with its entire contents, was carefully excised and weighed. Blood was collected from the left ventricle of the heart and processed to plasma in EDTA-coated tubes containing aprotinin and DPPIV inhibitor for measurement of total GLP-1 (K150FCC; Meso Scales Discovery, Gaithersburg Md.).
Compound concentrations in the gall bladder were determined as follows: each mouse was heavily anesthetized with isoflurane, the peritoneal cavity was opened and the gallbladder, with its entire contents, was carefully excised. After harvest, gall bladders were homogenized in 100 μL water using a micro-homogenizer. Samples of homogenate were diluted 1:5 in water and precipitated with three volumes of neat acetonitrile. After centrifugation, supernatants were analyzed by LC-MS/MS. The level of test compound present in gall bladder samples was interpolated from a standard curve for each individual compound prepared in a matrix of gallbladder homogenate from vehicle treated animals.

C57BL/6 male mice = test: In vivo gallbladder measurement (weight) 8 h post dose; conditions: 30 mg/kg; for Gallbladder weight/body weight fold change over vehicle, Significance: 8 h, vs. vehicle, one-way ANOVA, Dunnett's test; for Gallbladder weight/body weight fold change over vehicle, Mean: food removed, eight hours after dosing
Excerpt: as §1

total GLP-1 = test: In vivo GLP-1 secretion, plasma total GLP-1 8 h post dose; conditions: Mus musculus, C57BL/6 male mice, food removed, plasma total GLP-1 eight hours after dosing, read-out: GLP-1 fold change over vehicle, Mean
Excerpt: as §1

human TGR5 = target: T1, human TGR5 (Homo sapiens, UniProt Q8TDU6); test: Cell-based TGR5 assay, HEK293 cells stably expressing human TGR5, cAMP by HTRF; conditions: HEK293 cells stably expressing human TGR5, 30 min at 37 C, 0.05 nM to 10 μM, read-out: pEC50 Human TGR5 (converted)
T1 construct: expressed in transfected cells
T1 sequence (Q8TDU6 1-330): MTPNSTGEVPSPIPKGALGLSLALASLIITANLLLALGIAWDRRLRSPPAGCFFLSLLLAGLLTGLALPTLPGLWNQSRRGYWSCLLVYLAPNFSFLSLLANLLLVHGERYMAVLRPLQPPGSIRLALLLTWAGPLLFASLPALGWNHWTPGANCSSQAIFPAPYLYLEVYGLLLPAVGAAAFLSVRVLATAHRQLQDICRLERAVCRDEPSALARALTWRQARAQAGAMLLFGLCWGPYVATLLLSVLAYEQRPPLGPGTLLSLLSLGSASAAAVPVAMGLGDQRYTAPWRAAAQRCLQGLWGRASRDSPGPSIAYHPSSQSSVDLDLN
Summary of the method: (§2)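 cAMP HTRF read-out, converted to concentration via standard curve, after a 30 min, 37 °C compound exposure in HBSS with 10 mM HEPES pH 7.4 and 0.5 mM IBMX, compounds serially diluted 3-fold from 10 mM DMSO stock then 100-fold. Cells: stable human TGR5 HEK293, or NCI-H716 expressing TGR5 endogenously.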

[2] = Compound plasma concentration, LC-MS/MS, 8 h post dose; format: in vivo; conditions: 30 mg/kg; for Number of Mice with Plasma Concentration < LLOQ: mice below LLOQ / mice in group; for concentration at 8 h: male, C57BL/6, mouse, mice, plasma, read-out: Mean Example Plasma Concentration
Summary of the method: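 Blood was taken from the left ventricle 8 h after dosing, under isoflurane anesthesia, into EDTA tubes containing aprotinin and DPPIV inhibitor. Plasma was protein-precipitated with acetonitrile containing an internal standard, and supernatants were analyzed by LC-MS/MS against a plasma standard curve.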

human IBAT = target: T2, human IBAT (Homo sapiens, UniProt Q12908); test: IBAT counter screen, [3H]taurocholic acid uptake in IBAT-transfected HEK293 cells; format: cell-based; conditions: read-out: pEC50 human IBAT (converted)
T2 construct: expressed in transfected cells; host or cells: HEK293
T2 sequence (Q12908 1-348): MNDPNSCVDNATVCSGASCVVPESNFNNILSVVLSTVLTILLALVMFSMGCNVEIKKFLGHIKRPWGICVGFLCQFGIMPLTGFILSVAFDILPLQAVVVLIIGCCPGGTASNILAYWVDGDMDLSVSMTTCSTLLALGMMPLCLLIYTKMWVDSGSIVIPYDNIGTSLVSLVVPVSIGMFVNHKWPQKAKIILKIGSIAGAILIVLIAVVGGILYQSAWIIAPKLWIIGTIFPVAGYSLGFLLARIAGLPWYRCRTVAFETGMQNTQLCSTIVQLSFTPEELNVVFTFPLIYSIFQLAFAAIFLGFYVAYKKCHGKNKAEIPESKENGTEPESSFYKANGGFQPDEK
Experimental: Following a 40-min incubation, the solution was removed, and the cells were washed twice with uptake buffer. Cells were lysed by addition of 20 μL 0.1% Tween 80 followed by 100 μL scintillation fluid and counted using a TopCount (Perkin Elmer).

[3] = target: T3, endogenously expressed TGR5 in NCI H716 (Homo sapiens, UniProt Q8TDU6); test: Cell-based TGR5 assay, NCI-H716 cells endogenously expressing human TGR5, cAMP by HTRF; conditions: 30 min at 37 C, 22 nM to 50 μM, read-out: pEC50 endogenously expressed TGR5 in NCI H716 (converted)
T3 construct: human caecum carcinoma cell line NCI-H716 which endogenously expresses human TGR5; endogenous in cells; host or cells: NCI-H716
T3 sequence (Q8TDU6 1-330): T1 sequence (Q8TDU6 1-330)
Summary of the method: as §2

human FXR = target: T4, human FXR (Homo sapiens, UniProt Q96RI1); test: FXR counter screen, cell-based luciferase reporter assay; conditions: cells expressing human FXR and FXR-responsive luciferase reporter, 0.4 to 50 μM test compound; read-out: pEC50 human FXR (converted)
T4 construct: purchased Indigo Biosciences (State College, Pa.)
T4 sequence (Q96RI1 1-486): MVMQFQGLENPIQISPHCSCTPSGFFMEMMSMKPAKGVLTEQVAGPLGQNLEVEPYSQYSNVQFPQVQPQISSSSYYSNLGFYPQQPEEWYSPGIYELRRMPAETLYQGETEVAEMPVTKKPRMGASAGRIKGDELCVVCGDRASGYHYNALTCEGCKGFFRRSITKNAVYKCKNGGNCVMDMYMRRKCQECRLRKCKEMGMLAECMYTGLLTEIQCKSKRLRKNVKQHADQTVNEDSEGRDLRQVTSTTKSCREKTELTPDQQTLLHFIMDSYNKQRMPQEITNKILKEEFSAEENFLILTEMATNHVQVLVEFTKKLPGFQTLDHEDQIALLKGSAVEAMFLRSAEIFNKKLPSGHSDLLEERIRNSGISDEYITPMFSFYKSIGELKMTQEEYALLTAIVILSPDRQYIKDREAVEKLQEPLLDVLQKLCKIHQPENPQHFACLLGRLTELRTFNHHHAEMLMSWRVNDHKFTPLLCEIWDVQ
Experimental: FXR: The ability of test compounds to activate FXR (NR1H4) was measured using a cell-based assay kit obtained from Indigo Biosciences (State College, Pa.).

Row | SMILES | Number of Mice with Gallbladder Concentration < LLOQ [1] | concentration at 8 h [1] [nM] | Gallbladder weight/body weight fold change over vehicle, Significance (C57BL/6 male mice) | Gallbladder weight/body weight fold change over vehicle, Mean (C57BL/6 male mice) [fold change over vehicle] | response vs control in vivo at 30 mg/kg (total GLP-1) [%] | EC50 (human TGR5) [nM] | Number of Mice with Plasma Concentration < LLOQ [2] | concentration at 8 h [2] [ng/mL] | EC50 (human IBAT) [nM] | EC50 [3] [nM] | EC50 (human FXR) [nM]
1 | O=C(CCCCc1cc(Cl)c(CNC2(C(=O)N3CCN(C4CC4)c4ccccc43)CC2)cc1Cl)NC[C@H](O)[C@@H](O)[C@H](O)[C@H](O)CO [Example 218] | 0/8 | 100 | n.s. | 1.0 | 140 | < 100 | 2/8 | 0.7 | > 25100 | < 100 | 
2 | O=C(CCCCc1cc(Cl)c(COC2(C(=O)N3CCN(C4CC4)c4ccccc43)CC2)cc1Cl)NC[C@H](O)[C@@H](O)[C@H](O)[C@H](O)CO [Example 193] | 0/8 | 900 | n.s. | 1.1 | 90 | < 100 | 5/8 | 5.2 | > 25100 |  | 
3 | O=C(N1CCN(C2CC2)c2ccccc21)C1(NCc2cc(Cl)ccc2Cl)CC1 [Example 26, (4-cyclopropyl-3,4-dihydroquinoxalin-1(2H)-yl)(1-((2,5-dichlorobenzyl)amino)cyclopropyl)methanone] | 0/8 | 30 | * (* p < 0.05 vs. vehicle; One-way ANOVA followed by Dunnett's test) | 1.6 | 160 | < 100 | 0/8 | 9.1 | > 25100 | < 100 | > 50100
4 | O=C(CCc1cc(Cl)c(OCC2(C(=O)N3CCN(C4CC4)c4ccccc43)CC2)cc1Cl)NC[C@H](O)[C@@H](O)[C@H](O)[C@H](O)CO [Example 75, 3-[2,5-dichloro-4-([1-[(4-cyclopropyl-1,2,3,4-tetrahydroquinoxalin-1-yl)carbonyl]cyclopropyl]methoxy)phenyl]-N-[(2S,3R,4R,5R)-2,3,4,5,6-pentahydroxyhexyl]propanamide] |  |  |  |  |  | 126 to 1000 |  |  |  | 126 to 1000 | > 50100
5 | CN(C[C@H](O)[C@@H](O)[C@H](O)[C@H](O)CO)C(=O)CCc1cc(Cl)c(OCC2(C(=O)N3CCN(C4CC4)c4ccccc43)CC2)cc1Cl [Example 34, 3-[2,5-dichloro-4-([1-[(4-cyclopropyl-1,2,3,4-tetrahydroquinoxalin-1-yl)carbonyl]cyclopropyl]methoxy)phenyl]-N-methyl-N-[(2S,3R,4R,5R)-2,3,4,5,6-pentahydroxyhexyl]propanamide] |  |  |  |  |  | 126 to 1000 |  |  |  | 1260 to 50100 | > 50100
6 | CN(C[C@H](O)[C@@H](O)[C@H](O)[C@H](O)CO)C(=O)CCc1cc(Cl)c(COC2(C(=O)N3CCN(C4CC4)c4ccccc43)CC2)cc1Cl [Example 80, 3-[2,5-dichloro-4-([1-[(4-cyclopropyl-1,2,3,4-tetrahydro-quinoxalin-1-yl)carbonyl]cyclopropoxy]methyl)phenyl]-N-methyl-N-[(2S,3R,4R,5R)-2,3,4,5,6-pentahydroxyhexyl]propanamide] |  |  |  |  |  | < 100 |  |  |  | 126 to 1000 | > 50100

From patent publication US20150148311A1, “NON-SYSTEMIC TGR5 AGONISTS” (Ardelyx, Inc., priority 2011, published 2015)
